Assay results from patent publication US7820670B2 (Alcon Research, Ltd., priority 2006, dated 2010).
Where a name gives a salt, the structure may show the parent alone. Read-outs that look alike come from different tables or passages of the source.

What was measured:
ROCK 2 = biological target: T1, ROCK 2 (Homo sapiens, UniProt O75116); assay: Rho kinase assay (IMAP ROCK-II kit, fluorescence polarization); type: biochemical
T1 construct: purchased Molecular Devices, Sunnyvale, Calif
Description: (§1) The rho kinase assays were performed using a Biomek 2000 Robotic Workstation (Beckman Instruments, Palo Alto, Calif.) in a 96-well plate format. The assay was performed utilizing the IMAP ROCK-I and ROCK-II kits (Molecular Devices, Sunnyvale, Calif.) as follows. […] The substrate, enzyme, and ATP dilutions were made with the reaction buffer provided by the vendor. Test compounds were diluted in 10:10 DMSO-ethanol (vol/vol). For the actual assay, the various components were added into black, clear bottom, 96-well plates (Costar, Corning, N.Y.) in a final volume of 20μl per well. After the enzyme reaction (60 min at 23° C.), 60 μl of the binding solution was added per well and incubated for an additional 30 minutes in the dark at 23° C. Fluorescence polarization of the reaction mixtures was then measured on the Analyst™ HT instrument (Molecular Devices, Sunnyvale, Calif.).

ROCK 1 = ROCK 1 (Homo sapiens, UniProt Q13464); assay: Rho kinase assay (IMAP ROCK-I kit, fluorescence polarization)
Description: as §1

[1] = substrate 200 nM, ATP 10 μM, 60 min at 23° C.

T1 sequence (O75116 whole entry, species assumed): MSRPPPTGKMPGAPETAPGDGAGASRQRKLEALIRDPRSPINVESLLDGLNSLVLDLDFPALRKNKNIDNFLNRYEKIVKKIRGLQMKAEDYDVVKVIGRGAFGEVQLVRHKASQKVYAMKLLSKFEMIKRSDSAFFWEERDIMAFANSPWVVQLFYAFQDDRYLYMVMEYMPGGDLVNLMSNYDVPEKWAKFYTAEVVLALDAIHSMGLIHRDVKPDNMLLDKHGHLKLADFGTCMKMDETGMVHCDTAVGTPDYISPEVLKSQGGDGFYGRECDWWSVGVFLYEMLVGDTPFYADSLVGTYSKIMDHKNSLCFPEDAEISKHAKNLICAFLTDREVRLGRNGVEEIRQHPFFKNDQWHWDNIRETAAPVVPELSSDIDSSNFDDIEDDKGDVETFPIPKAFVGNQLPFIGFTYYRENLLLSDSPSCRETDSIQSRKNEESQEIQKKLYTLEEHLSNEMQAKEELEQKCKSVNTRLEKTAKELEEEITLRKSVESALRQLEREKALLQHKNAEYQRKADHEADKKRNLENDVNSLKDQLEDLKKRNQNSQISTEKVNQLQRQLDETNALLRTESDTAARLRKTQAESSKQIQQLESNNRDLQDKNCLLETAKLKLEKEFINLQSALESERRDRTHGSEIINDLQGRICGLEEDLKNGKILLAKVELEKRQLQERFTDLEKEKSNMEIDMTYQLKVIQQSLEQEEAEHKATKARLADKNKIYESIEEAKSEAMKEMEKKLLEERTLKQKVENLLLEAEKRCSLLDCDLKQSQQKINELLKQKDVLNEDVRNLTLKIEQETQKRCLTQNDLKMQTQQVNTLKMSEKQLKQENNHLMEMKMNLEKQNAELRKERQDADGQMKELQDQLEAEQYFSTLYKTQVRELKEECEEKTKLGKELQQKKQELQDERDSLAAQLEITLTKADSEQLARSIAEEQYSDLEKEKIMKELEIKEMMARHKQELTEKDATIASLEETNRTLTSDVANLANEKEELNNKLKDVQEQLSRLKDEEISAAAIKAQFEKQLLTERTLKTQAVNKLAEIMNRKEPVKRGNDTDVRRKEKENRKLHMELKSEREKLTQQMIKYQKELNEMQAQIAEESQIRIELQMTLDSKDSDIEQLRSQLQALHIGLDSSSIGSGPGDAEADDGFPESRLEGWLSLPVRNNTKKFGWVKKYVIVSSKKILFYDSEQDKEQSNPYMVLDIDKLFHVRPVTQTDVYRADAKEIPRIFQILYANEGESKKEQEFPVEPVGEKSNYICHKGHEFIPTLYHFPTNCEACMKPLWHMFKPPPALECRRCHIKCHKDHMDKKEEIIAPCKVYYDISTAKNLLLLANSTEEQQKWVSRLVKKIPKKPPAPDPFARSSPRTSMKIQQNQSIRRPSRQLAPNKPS
Chain of ROCK 1 (Q13464 whole entry, species assumed): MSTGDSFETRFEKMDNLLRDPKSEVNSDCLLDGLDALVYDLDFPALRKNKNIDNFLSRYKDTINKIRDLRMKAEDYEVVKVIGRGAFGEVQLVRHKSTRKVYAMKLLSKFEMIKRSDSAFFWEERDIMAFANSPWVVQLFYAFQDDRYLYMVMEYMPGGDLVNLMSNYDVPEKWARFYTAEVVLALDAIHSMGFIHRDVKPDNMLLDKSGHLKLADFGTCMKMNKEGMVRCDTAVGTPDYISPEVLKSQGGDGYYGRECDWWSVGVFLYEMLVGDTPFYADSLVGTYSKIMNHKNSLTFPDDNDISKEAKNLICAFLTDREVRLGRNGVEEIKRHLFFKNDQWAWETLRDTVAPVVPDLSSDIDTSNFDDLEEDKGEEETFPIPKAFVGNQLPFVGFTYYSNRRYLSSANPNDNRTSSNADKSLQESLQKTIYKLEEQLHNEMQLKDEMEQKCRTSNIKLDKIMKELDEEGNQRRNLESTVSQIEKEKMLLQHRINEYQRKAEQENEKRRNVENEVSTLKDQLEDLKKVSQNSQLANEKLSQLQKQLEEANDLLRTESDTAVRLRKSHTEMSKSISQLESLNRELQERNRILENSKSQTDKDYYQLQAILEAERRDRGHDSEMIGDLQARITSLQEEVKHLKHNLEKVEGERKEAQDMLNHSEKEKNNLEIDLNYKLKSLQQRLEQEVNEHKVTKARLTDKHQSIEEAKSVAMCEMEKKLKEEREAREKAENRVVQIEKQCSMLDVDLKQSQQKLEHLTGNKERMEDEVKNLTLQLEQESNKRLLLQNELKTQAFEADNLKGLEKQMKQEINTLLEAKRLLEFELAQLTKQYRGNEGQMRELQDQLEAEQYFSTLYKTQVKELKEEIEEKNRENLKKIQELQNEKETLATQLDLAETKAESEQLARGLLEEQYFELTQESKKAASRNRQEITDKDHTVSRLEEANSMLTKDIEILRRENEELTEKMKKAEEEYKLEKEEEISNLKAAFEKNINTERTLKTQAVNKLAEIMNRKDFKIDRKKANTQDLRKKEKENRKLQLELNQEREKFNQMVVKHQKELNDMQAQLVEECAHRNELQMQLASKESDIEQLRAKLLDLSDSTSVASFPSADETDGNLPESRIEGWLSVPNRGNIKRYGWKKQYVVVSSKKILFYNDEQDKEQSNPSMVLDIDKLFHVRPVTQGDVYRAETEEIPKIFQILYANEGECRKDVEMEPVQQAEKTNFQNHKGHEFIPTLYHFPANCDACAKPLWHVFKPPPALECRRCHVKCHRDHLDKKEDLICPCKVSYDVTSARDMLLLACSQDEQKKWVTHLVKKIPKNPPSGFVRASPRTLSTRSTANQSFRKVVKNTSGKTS

| IC50 (ROCK 2; [1]) [µM] | IC50 (ROCK 1) [µM] | Compound | IC50 (ROCK 2) [µM] |
| --- | --- | --- | --- |
| 13 | > 100 | c1ccc(CNc2ccc3nccn3n2)nc1 [Example 33, N-(Pyridin-2-ylmethyl)imidazo[1,2-b]pyridazin-6-amine hydrochloride] | – |
| 88 | 43 | CCCC/C=C\c1cnc2ccc(NCCCN3CCOCC3)nn12 [Example 27, (Z)-3-(Hex-1-enyl)-N-(3-morpholinopropyl)imidazo[1,2-b]pyridazin-6-amine hydrochloride] | – |
| 88 | 43 | CCC/C=C/c1cnc2ccc(NCCCN3CCOCC3)nn12 [Example 18, (E)-N-(3-Morpholinopropyl)-3-(pent-1-enyl)imidazo[1,2-b]pyridazin-6-amine hydrochloride] | – |
| 17 | 6 | CCCC/C=C/c1cnc2ccc(N[C@H]3CC[C@@H](O)CC3)nn12 [Example 50, Syn-(E)-4-(3-(Hex-1-enyl)imidazo[1,2-b]pyridazin-6-ylamino)cyclohexanol hydrochloride] | – |
| > 100 | > 100 | COc1ccccc1-c1cnc2ccc(NCc3ccccn3)nn12 [Example 2, 3-(2-Methoxyphenyl)-N-(pyridin-2-ylmethyl)imidazo[1,2-b]pyridazin-6-amine fumarate] | – |
| > 100 | > 100 | OCc1cnc2ccc(NCc3ccccn3)nn12 [Example 25, (6-(Pyridin-2-ylmethylamino)imidazo[1,2-b]pyridazin-3-yl)methanol hydrochloride] | – |
| > 100 | > 100 | CCOCc1cnc2ccc(NCc3ccccn3)nn12 [Example 32, 3-(Ethoxymethyl)-N-(pyridin-2-ylmethyl)imidazo[1,2-b]pyridazin-6-amine hydrochloride] | – |
| > 100 | > 100 | CCCCC#Cc1cnc2ccc(NCc3ccccn3)nn12 [Example 28, 3-(Hex-1-ynyl)-N-(pyridin-2-ylmethyl)imidazo[1,2-b]pyridazin-6-amine hydrochloride] | – |
| – | 37 | Clc1cnc2ccc(NCCCN3CCOCC3)nn12 [Example 14, 3-Chloro-N-(3-morpholinopropyl)imidazo[1,2-b]pyridazin-6-amine hydrochloride] | – |
| > 100 | 28 | CCCCCCc1cnc2ccc(NCCCN3CCOCC3)nn12 [Example 17, 3-Hexyl-N-(3-morpholinopropyl)imidazo[1,2-b]pyridazin-6-amine hydrochloride] | – |
| 11 | 4.3 | CCCC/C=C/c1cnc2ccc(NCc3ccncc3)nn12 [Example 43, (E)-3-(Hex-1-enyl)-N-(pyridin-4-ylmethyl)imidazo[1,2-b]pyridazin-6-amine] | – |
| 56 | 12 | c1n[nH]cc1-c1cnc2ccc(N3CCOCC3)nn12 [Example 3, 4-(3-(1H-Pyrazol-4-yl)imidazo[1,2-b]pyridazin-6-yl)morpholine] | – |
| > 100 | > 100 | OCc1cnc2ccc(NCCCN3CCOCC3)nn12 [Example 24, (6-(3-Morpholinopropylamino)imidazo[1,2-b]pyridazin-3-yl)methanol hydrochloride] | – |
| 5.8 | 9 | CCCCC#Cc1cnc2ccc(NCCCN3CCOCC3)nn12 [Example 26, 3-(Hex-1-ynyl)-N-(3-morpholinopropyl)imidazo[1,2-b]pyridazin-6-amine hydrochloride] | – |
| 8.2 | 5 | CCCC/C=C/c1cnc2ccc(NCCCCN(C)C)nn12 [Example 46, (E)-N^1-(3-(Hex-1-enyl)imidazo[1,2-b]pyridazin-6-yl)-N^4,N^4-dimethylbutane-1,4-diamine] | – |
| > 100 | > 100 | c1cn2nc(NCCCN3CCOCC3)ccc2n1 [Example 35, N-(3-Morpholinopropyl)imidazo[1,2-b]pyridazin-6-amine hydrochloride] | – |
| 120 | 38 | CCCCC/C=C/c1cnc2ccc(NCCCN3CCOCC3)nn12 [Example 22, (E)-3-(Hept-1-enyl)-N-(3-morpholinopropyl)imidazo[1,2-b]pyridazin-6-amine hydrochloride] | – |
| 97 | 47 | CCCC/C=C/c1cnc2ccc(NCCCN3CCN(C)CC3)nn12 [Example 38, (E)-3-(Hex-1-enyl)-N-(3-(4-methylpiperazin-1-yl)propyl)imidazo[1,2-b]pyridazin-6-amine hydrochloride] | – |

| IC50 (ROCK 2; [1]) [µM] | IC50 (ROCK 1) [µM] | Compound | IC50 (ROCK 2) [µM] |
| --- | --- | --- | --- |
| > 100 | > 100 | CCOCc1cnc2ccc(NCCCN3CCOCC3)nn12 [Example 31, 3-(Ethoxymethyl)-N-(3-morpholinopropyl)imidazo[1,2-b]pyridazin-6-amine hydrocloride] | – |
| 200 | > 100 | C1=C(c2cnc3ccc(NCc4ccccn4)nn23)CCCC1 [Example 21, 3-Cyclohexenyl-N-(pyridin-2-ylmethyl)imidazo[1,2-b]pyridazin-6-amine hydrochloride] | – |
| 69 | 17 | COc1ccc(-c2cnc3ccc(NCc4ccccn4)nn23)cc1 [Example 1, 3-(4-Methoxyphenyl)-N-(pyridin-2-ylmethyl)imidazo[1,2-b]pyridazin-6-amine] | – |
| 6.7 | 18 | c1n[nH]cc1-c1cnc2ccc(N3CCCNCC3)nn12 [Example 56, 6-Perhydro-1,4-diazepin-1-yl-3-(1H-pyrazol-4-yl)-imidazo[1,2-b]pyridazine dihydrochloride] | – |
| 17 | 42 | CCCCCCc1cnc2ccc(NCc3ccccn3)nn12 [Example 29, 3-Hexyl-N-(pyridin-2-ylmethyl)imidazo[1,2-b]pyridazin-6-amine hydrochloride] | – |
| 17 | 25 | Clc1cnc2ccc(NCc3ccccn3)nn12 [Example 13, 3-Chloro-N-(pyridin-2-ylmethyl)imidazo[1,2-b]pyridazin-6-amine] | – |
| 4.7 | 2.3 | CCCC/C=C/c1cnc2ccc(NCc3cccnc3)nn12 [Example 45, (E)-3-(Hex-1-enyl)-N-(pyridin-3-ylmethyl)imidazo[1,2-b]pyridazin-6-amine] | – |
| 16 | 67 | Cc1cnc2ccc(NCc3ccccn3)nn12 [Example 15, 3-Methyl-N-(pyridin-2-ylmethyl)imidazo[1,2-b]pyridazin-6-amine hydrochloride] | – |
| 0.77 | 1.1 | CCCC/C=C/c1cnc2ccc(NCCCN(C)C)nn12 [Example 39, (E)-N^1-(3-(Hex-1-enyl)imidazo[1,2-b]pyridazin-6-yl)-N^3,N^3-dimethylpropane-1,3-diamine hydrochloride] | – |
| 34 | 17 | CCCC/C=C/c1cnc2ccc(NCCO)nn12 [Example 42, (E)-2-(3-(Hex-1-enyl)imidazo[1,2-b]pyridazin-6-ylamino)ethanol hydrochloride] | – |
| > 100 | > 100 | CCCC/C=C/c1cnc2ccc(NCCN(CC)CC)nn12 [Example 40, (E)-N^1,N^1-Diethyl-N^2-(3-(hex-1-enyl)imidazo[1,2-b]pyridazin-6-yl)ethane-1,2-diamine hydrochloride] | – |
| > 100 | > 100 | COCc1cnc2ccc(NCCCN3CCOCC3)nn12 [Example 30, 3-(Methoxymethyl)-N-(3-morpholinopropyl)imidazo[1,2-b]pyridazin-6-amine hydrochloride] | – |
| > 100 | > 100 | CCCNc1ccc2ncc(-c3cc(C)cs3)n2n1 [Example 4, 3-(4-Methylthiophen-2-yl)-N-propylimidazo[1,2-b]pyridazin-6-amine] | – |
| 13 | 23 | CCCC/C=C/c1cnc2ccc(NCCCCO)nn12 [Example 37, (E)-4-(3-(Hex-1-enyl)imidazo[1,2-b]pyridazin-6-ylamino)butan-1-ol hydrochloride] | – |
| 79 | 36 | Cc1cnc2ccc(NCCN(C)C)nn12 [Example 11, N^1,N^1-Dimethyl-N^2-(3-methylimidazo[1,2-b]pyridazin-6-yl)ethane-1,2-diamine] | – |
| 0.33 | 0.93 | c1cc(-c2cnc3ccc(N4CCCNCC4)nn23)ccn1 [Example 54, 6-(1,4-Diazepan-1-yl)-3-pyridin-4-yl-imidazo [1,2-b]pyridazine hydrochloride] | – |
| 33 | 30 | CCCC/C=C/c1cnc2ccc(NCCCO)nn12 [Example 6, (E)-3-(3-(Hex-1-enyl)imidazo [1,2-b]pyridazin-6-ylamino)propan-1-ol fumarate] | – |

| Compound | IC50 (ROCK 2; [1]) [µM] | IC50 (ROCK 1) [µM] | IC50 (ROCK 2) [µM] |
| --- | --- | --- | --- |
| Cc1n[nH]c2ccc(-c3cnc4ccc(N5CCNCC5)nn34)cc12 [Example 52, 3-(3-Methyl-1H-indazol-5-yl)-6-piperazin-1-yl-imidazo[1,2-b]pyridazine trihydrochloride] | 0.014 | 0.027 | – |
| c1cncc(-c2cnc3ccc(N4CCCNCC4)nn23)c1 [Example 57, 6-Perhydro-1,4-diazepin-1-yl-3-pyridin-3-yl-imidazo[1,2-b]pyridazine trihydrochloride] | 23 | 63 | – |
| CCCC/C=C/c1cnc2ccc(NCCCN)nn12 [Example 48, (E)-N^1-(3-(Hex-1-enyl)imidazo[1,2-b]pyridazin-6-yl)propane-1,3-diamine] | 58 | 57 | – |
| CCCC/C=C/c1cnc2ccc(NCc3cnc(C)cn3)nn12 [Example 44, (E)-3-(Hex-1-enyl)-N-((5-methylpyrazin-2-yl)methyl)imidazo[1,2-b]pyridazin-6-amine] | 34 | 22 | – |
| COCc1cnc2ccc(NCc3ccccn3)nn12 [Example 34, hydrochloride] | > 100 | > 100 | – |
| CCCC/C=C/c1cnc2ccc(N[C@H]3CC[C@H](O)CC3)nn12 [Example 49, Anti-(E)-4-(3-(Hex-1-enyl)imidazo[1,2-b]pyridazin-6-ylamino)cyclohexanol] | 29 | 13 | – |
| CCCC/C=C/c1cnc2ccc(NCCCN3CCCC3)nn12 [Example 47, (E)-3-(Hex-1-enyl)-N-(3-(pyrrolidin-1-yl)propyl)imidazo[1,2-b]pyridazin-6-amine dihydrochloride] | – | 59 | 38 |
